Test results taken from PubChem BioAssay AID248 (DTP/NCI, 2004).
“And” between values parts separate entries of the source, which are not always exact repeats. Equal values may be shown once. Toxic doses and inconclusive results are not listed. No stated cut-off is given here; in the data, active means T/C of 150% or more; inactive means T/C below 125%.

Tested on: L1210 leukemia ip in BDF1 mice, survival T/C
Assay: NCI In Vivo Anticancer Drug Screen. Data for tumor model L1210 Leukemia (intraperitoneal) in B6D2F1 (BDF1) mice
Conditions: endpoint: mean survival time, higher = longer survival
Summary of the method: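 Transplantable tumor model; survival measured in treated vs vehicle control mice. Value = treated/control.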

[1] = dose: 100.0 mg/kg/injection, schedule: Q04DX002 (ip), vehicle: Klucel (hydroxypropylcellulose) (HPC)
[2] = dose: 200.0 mg/kg/injection, schedule: Q04DX002 (ip), vehicle: Klucel (hydroxypropylcellulose) (HPC)
[3] = dose: 400.0 mg/kg/injection, schedule: Q04DX002 (ip), vehicle: Klucel (hydroxypropylcellulose) (HPC)
[4] = dose: 100.0 mg/kg/injection, schedule: Q04DX003 (ip), vehicle: Klucel (hydroxypropylcellulose) (HPC)
[5] = dose: 200.0 mg/kg/injection, schedule: Q04DX003 (ip), vehicle: Klucel (hydroxypropylcellulose) (HPC)
[6] = dose: 400.0 mg/kg/injection, schedule: Q04DX003 (ip), vehicle: Klucel (hydroxypropylcellulose) (HPC)
[7] = dose: 100.0 mg/kg/injection, schedule: Q01DX001 (ip), vehicle: other
[8] = dose: 200.0 mg/kg/injection, schedule: Q01DX001 (ip), vehicle: other
[9] = dose: 400.0 mg/kg/injection, schedule: Q01DX001 (ip), vehicle: other
[10] = dose: 100.0 mg/kg/injection, schedule: Q01DX009 (ip), vehicle: Klucel (hydroxypropylcellulose) (HPC)
[11] = dose: 200.0 mg/kg/injection, schedule: Q01DX009 (ip), vehicle: Klucel (hydroxypropylcellulose) (HPC)
[12] = dose: 400.0 mg/kg/injection, schedule: Q01DX009 (ip), vehicle: Klucel (hydroxypropylcellulose) (HPC)
[13] = dose: 100.0 mg/kg/injection, schedule: Q04DX003 (ip), vehicle: saline with Tween-80
[14] = dose: 200.0 mg/kg/injection, schedule: Q04DX003 (ip), vehicle: saline with Tween-80
[15] = dose: 100.0 mg/kg/injection, schedule: Q01DX001 (ip), vehicle: saline
[16] = dose: 200.0 mg/kg/injection, schedule: Q01DX001 (ip), vehicle: saline
[17] = dose: 400.0 mg/kg/injection, schedule: Q01DX001 (ip), vehicle: saline

Measured: T/C

CCCNC(=O)Nc1ccc(S(N)(=O)=O)cc1
inactive: [1] 97 % of control | [2] 97 % of control | [3] 87 % of control

CCCCCCCCCCCCNC(=O)C[N+](C)(C)Cc1ccc2c(c1)CCCC2
inactive: dose: 2.5 mg/kg/injection, schedule: Q01DX009 (ip), vehicle: saline with Tween-80 106 % of control | dose: 5.0 mg/kg/injection, schedule: Q01DX009 (ip), vehicle: saline with Tween-80 94 % of control

O=C(NC(=S)Nc1ccc([N+](=O)[O-])cc1Cl)c1ccccc1F
inactive: [1] 91 % of control | [2] 105 % of control | [3] 105 % of control

O=C1c2ccccc2-c2c(N=Cc3ccc([N+](=O)[O-])cc3)cccc21
inactive: [4] 102 % of control | [5] 89 % of control | [6] 96 % of control

CN1c2cccc[c]2[Sn]([CH3])([CH3])[c]2ccccc21
inactive: [7] 92 % of control | [8] 92 % of control | [9] 108 % of control

OC(Br)C1C(c2ccccc2)N1C1CCCCC1 (centres undefined)
inactive: [4] 98 % of control | [5] 91 % of control | [6] 93 % of control

Cc1ccc2c(c1)C=C/C(=C/c1cc[n+](C)c3ccccc13)N2C
inactive: [7] 97 % of control | [8] 92 % of control

O=C(O)C1CCCCC1C(=O)Nc1cccc2ccccc12 (centres undefined)
inactive: [10] 105 % of control | [11] 96 % of control | [12] 93 % of control

CCCCOP(=S)(Cc1ccccc1)OCCCC
inactive: [10] 104 % of control | [11] 104 % of control | [12] 104 % of control

c1nc(SCSc2ncnc3nc[nH]c23)c2[nH]cnc2n1
inactive: [13] 97 % of control | [14] 90 % of control | dose: 400.0 mg/kg/injection, schedule: Q04DX003 (ip), vehicle: saline with Tween-80 90 % of control

Cc1ccc(N=Nc2cc(C(C)C)c(O)cc2C)cc1
inactive: [7] 97 % of control | [8] 97 % of control | [9] 95 % of control

COc1ccc(OC)c(CBr)c1CBr
inactive: dose: 5.0 mg/kg/injection, schedule: Q01DX001 (ip), vehicle: saline 101 % of control | dose: 10.0 mg/kg/injection, schedule: Q01DX001 (ip), vehicle: saline 98 % of control | dose: 20.0 mg/kg/injection, schedule: Q01DX001 (ip), vehicle: saline 101 % of control | dose: 40.0 mg/kg/injection, schedule: Q01DX001 (ip), vehicle: saline 98 % of control | dose: 80.0 mg/kg/injection, schedule: Q01DX001 (ip), vehicle: saline 104 % of control

CCOC(=O)c1ccc(NC(=O)Oc2ccc(SC)cc2)cc1
inactive: [10] 90 % of control | [11] 94 % of control | [12] 94 % of control

CCOc1nn2nnnc2c2ccccc12
inactive: dose: 37.5 mg/kg/injection, schedule: Q04DX003 (ip), vehicle: saline with Tween-80 97 % of control | dose: 75.0 mg/kg/injection, schedule: Q04DX003 (ip), vehicle: saline with Tween-80 97 % of control | dose: 150.0 mg/kg/injection, schedule: Q04DX003 (ip), vehicle: saline with Tween-80 103 % of control

O=CNc1ccc2c(c1)Cc1cc(Cl)ccc1-2
inactive: dose: 30.0 mg/kg/injection, schedule: Q01DX015 (ip), vehicle: carboxymethylcellulose (CMC) 97 % of control | dose: 60.0 mg/kg/injection, schedule: Q01DX015 (ip), vehicle: carboxymethylcellulose (CMC) 106 % of control | dose: 120.0 mg/kg/injection, schedule: Q01DX015 (ip), vehicle: carboxymethylcellulose (CMC) 97 % of control

NC(N)=N/N=C(\c1ccccc1)C(O)c1ccccc1 (centres undefined)
inactive: dose: 15.0 mg/kg/injection, schedule: Q01DX Z (ip), vehicle: carboxymethylcellulose (CMC) 106 % of control | dose: 30.0 mg/kg/injection, schedule: Q01DX Z (ip), vehicle: carboxymethylcellulose (CMC) 101 % of control | dose: 60.0 mg/kg/injection, schedule: Q01DX Z (ip), vehicle: carboxymethylcellulose (CMC) 102 % of control | dose: 60.0 mg/kg/injection, schedule: Q01DX Z (oral), vehicle: carboxymethylcellulose (CMC) 96 % of control | dose: 120.0 mg/kg/injection, schedule: Q01DX Z (ip), vehicle: carboxymethylcellulose (CMC) 98 % of control | dose: 120.0 mg/kg/injection, schedule: Q01DX Z (oral), vehicle: carboxymethylcellulose (CMC) 90 % of control | dose: 240.0 mg/kg/injection, schedule: Q01DX Z (oral), vehicle: carboxymethylcellulose (CMC) 90 % of control | dose: 480.0 mg/kg/injection, schedule: Q01DX Z (oral), vehicle: carboxymethylcellulose (CMC) 93 % of control

COC(=O)/C=C/CBr
inactive: dose: 0.2 mg/kg/injection, schedule: Q01DX015 (ip), vehicle: carboxymethylcellulose (CMC) 91 % of control | dose: 4.0 mg/kg/injection, schedule: Q01DX015 (ip), vehicle: carboxymethylcellulose (CMC) 109 % of control | dose: 5.0 mg/kg/injection, schedule: Q01DX001 (ip), vehicle: carboxymethylcellulose (CMC) 95 % of control | dose: 8.0 mg/kg/injection, schedule: Q01DX015 (ip), vehicle: carboxymethylcellulose (CMC) 91 % of control | dose: 10.0 mg/kg/injection, schedule: Q01DX001 (ip), vehicle: carboxymethylcellulose (CMC) 93 % of control | dose: 16.0 mg/kg/injection, schedule: Q01DX015 (ip), vehicle: carboxymethylcellulose (CMC) 100 % of control and 102 % of control | dose: 32.0 mg/kg/injection, schedule: Q01DX015 (ip), vehicle: carboxymethylcellulose (CMC) 100 % of control

C=C1CC2(OC1=O)C(=O)N(C)c1ccc(I)cc12 (centres undefined)
inactive: dose: 25.0 mg/kg/injection, schedule: Q04DX002 (ip), vehicle: saline with Tween-80 101 % of control | dose: 50.0 mg/kg/injection, schedule: Q04DX002 (ip), vehicle: saline with Tween-80 97 % of control | dose: 100.0 mg/kg/injection, schedule: Q04DX002 (ip), vehicle: saline with Tween-80 102 % of control

N#CCC[P+](CCC#N)(CCC#N)CCCCCC[P+](CCC#N)(CCC#N)CCC#N
inactive: [13] 98 % of control | [14] 93 % of control

CCOC(=O)CN(c1ccccc1C(=O)OC)S(=O)(=O)c1ccc(C)cc1
inactive: dose: 100.0 mg/kg/injection, schedule: Q01DX001 (ip), vehicle: carboxymethylcellulose (CMC) 112 % of control | dose: 200.0 mg/kg/injection, schedule: Q01DX001 (ip), vehicle: carboxymethylcellulose (CMC) 114 % of control | dose: 400.0 mg/kg/injection, schedule: Q01DX001 (ip), vehicle: carboxymethylcellulose (CMC) 107 % of control

Nc1ncnc2c1nc(N)n2C1OC(CO)C(O)C1O (centres undefined)
inactive: [15] 115 % of control and 104 % of control | [16] 123 % of control and 104 % of control | [17] 98 % of control

N#CC/C(C#N)=C/OC(=O)c1ccc(Cl)cc1
inactive: [10] 118 % of control | [11] 124 % of control | [12] 115 % of control

C=C1C(=O)OC2C1CCC(=C)C1CC(O)C(=C)C12 (centres undefined)
inactive: dose: 67.0 mg/kg/injection, schedule: Q01DX009 (ip), vehicle: saline with Tween-80 103 % of control | dose: 100.0 mg/kg/injection, schedule: Q01DX009 (ip), vehicle: saline with Tween-80 105 % of control

Cc1ccc(C)c(NC(=O)Oc2ccc(F)cc2Cl)c1
inactive: dose: 50.0 mg/kg/injection, schedule: Q01DX009 (ip), vehicle: Klucel (hydroxypropylcellulose) (HPC) 91 % of control | [10] 90 % of control | [4] 94 % of control | [11] 87 % of control | [5] 105 % of control

Cc1ccc(C2(C)CC/C(=N/N=C3/CCC(C)(c4ccc(C)c(C)c4)c4cc(C)c(C)cc43)c3cc(C)c(C)cc32)cc1C (centres undefined)
inactive: [15] 93 % of control | [16] 101 % of control | [17] 98 % of control

O=C(Nc1cccc(Cl)c1)Oc1cccc2c1CCC2
inactive: dose: 100.0 mg/kg/injection, schedule: Q04DX002 (sc), vehicle: olive oil, sesame oil, peanut oil 97 % of control | dose: 200.0 mg/kg/injection, schedule: Q04DX002 (sc), vehicle: olive oil, sesame oil, peanut oil 94 % of control | dose: 400.0 mg/kg/injection, schedule: Q04DX002 (sc), vehicle: olive oil, sesame oil, peanut oil 102 % of control

Nc1nc(=O)n(C2OC(CO)C(O)C2O)c2nc(I)[nH]c12 (centres undefined)
inactive: dose: 50.0 mg/kg/injection, schedule: Q01DX005 (ip), vehicle: saline 100 % of control | dose: 100.0 mg/kg/injection, schedule: Q01DX005 (ip), vehicle: saline 107 % of control
